Assay results as given in patent US20250248979A1, “NOVEL GPX4 INHIBITORS AND USES THEREOF” (THE TRUSTEES OF COLUMBIA UNIVERSITY IN THE CITY OF NEW YORK, priority 2022, published 2025).
Numbering of substitutions follows the chain as printed. ≈ marks a conversion by molar mass, not a printed value. Read-outs that look alike come from different tables or passages of the source.

Legend:
GPX4 = biological target: T1, GPX4 (Homo sapiens, UniProt P36969); experiment: Western blot assay of GPX4 protein degradation; format: cell-based
T1 sequence (P36969 1-170 isoform P36969-2): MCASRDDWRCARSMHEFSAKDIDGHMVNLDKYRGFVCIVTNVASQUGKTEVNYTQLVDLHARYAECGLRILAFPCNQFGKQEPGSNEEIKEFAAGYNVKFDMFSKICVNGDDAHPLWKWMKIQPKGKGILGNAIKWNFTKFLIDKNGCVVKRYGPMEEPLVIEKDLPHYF
Description: HT-1080 cells were seeded at 250,000 cells per well in a 6-well plate and incubated 37° C. with 5% CO2 overnight. The next day, cells were treated with vehicle alone or the compound of interest with 10 μM Fer-1 for 10 hours. Compounds were dissolved in DMSO. Cells were harvested with trypsin, washed with cold PBS, and lysed in RIPA buffer containing complete Protease Inhibitor Cocktail mini tablets (Roche) on ice for 30 minutes. Samples were then centrifuged at 14,000×g for 15 minutes at 4° C. Supernatants were collected and protein concentrations were determined using the BCA Protein Assay Kit (Pierce). Concentrations were normalized across samples and mixed with 6×SDS-PAGE Sample Loading Buffer (G Biosciences). Protein samples were then loaded on a NuPAGE Novex 4-12% Bis-Tris protein gel and run in MES buffer (Invitrogen) at 100V for 10 minutes then 200V for an additional 30 minutes. Proteins were transferred to a PVDF membrane (Invitrogen) using the iBlot 2 Gel Transfer Device. The membrane was washed with PBS, then blocked using Intercept Blocking Buffer (LICOR) for one hour. The membrane was then incubated with the primary antibodies in a 1:1 solution of blocking buffer and PBST (PBS+0.1% Tween 20) overnight at 4° C. […] The blot was imaged using a LI-COR Odyssey CLx IR scanner and results were quantified in ImageJ and GraphPad Prism 9.

GPX4^U46C = biological target: T2, GPX4^U46C (Homo sapiens, UniProt P36969, U73C); experiment: Protein crystallography of inhibitor complexes
T2 construct: made in house; host or cells: E. coli BL21-Gold (DE3)
T2 sequence (P36969 1-170 isoform P36969-2 U46C): T1 sequence (P36969 1-170 isoform P36969-2) with U46C
Description: GPX4^U46C was pre-incubated with covalent inhibitors before crystallization using conditions that were optimized with monitoring on intact protein MALDI MS analysis. 40 μM GPX4^U46C was incubated with 375 μM LOC1886 in the reaction buffer (20 mM Tris pH 9.0, 100 mM NaCl, 2 mM TCEP, 1.5% DMSO) at 37° C. for 4 hours and then 4° C. overnight. Covalent binding was confirmed using intact protein MALDI MS analysis. The protein-inhibitor complex was then exchanged into crystallization buffer (20 mM Tris, pH 8.0, 300 mM NaCl, 3 mM TCEP) and concentrated to 5 mg/mL.
Protein samples of GPX4^U46C in complex with LOC1886 were initially screened at the High-Throughput Crystallization Screening Center of the Hauptman-Woodward Medical Research Institute (HWI) (hwi.buffalo.edu/high-throughput-crystallization-center/) (Luft et al. 2003). The most promising crystal hits were reproduced using under oil micro batch method at 23° C. […]
GPX4^U46C with LOC1886 diffracted X-ray at the beamline NE-CAT24-ID-C to resolution 1.93 Å. […] The structure of each protein was determined by molecular replacement method using MOLREP program and the crystal structures of GPX4^U46C (PDB id: 7L8K) and GPX4^U46C-R152H (PDB id: 7L8L) were both used as search models for structure determination (Vagin and Teplyakov, 2010). […]

in vitro = settings: mouse, plasma
[1] = Kinetic aqueous solubility
GPX1 = biological target: T3, GPX1 (Homo sapiens, UniProt P07203); experiment: GPX1 activity assay in cell lysates; format: biochemical; design: endogenous in cells; host or cells: A-673 cell lysate
T3 sequence (P07203 1-203): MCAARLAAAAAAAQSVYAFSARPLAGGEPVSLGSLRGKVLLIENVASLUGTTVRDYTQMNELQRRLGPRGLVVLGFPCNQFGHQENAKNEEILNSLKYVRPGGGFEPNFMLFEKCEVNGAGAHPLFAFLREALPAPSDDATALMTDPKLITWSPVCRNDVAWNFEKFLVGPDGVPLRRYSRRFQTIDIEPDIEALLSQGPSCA
Description: Determination of GPX1 activity in cell lysates was performed as previously described by Stolwijk et al. with some modifications (Stolwijk et al. 2020). GPX1 and GPX4 activity were not evaluated simultaneously in the same assay as in the published protocol to maximize signal-to-noise with the GPX1 substrate. Again, NADPH consumption, as determined by the reduction in the absorbance at 340 nm, over time was monitored as a proxy for GPX1 activity, which, like GPX4, reduces its substrates using glutathione as a reductant. 100 μM hydrogen peroxide was selected as the GPX1 substrate in this assay. A-673 cell lysates and assay setup were performed as above for the GPX4 activity assay. All conditions were tested in triplicate. Buffer-only controls and controls without substrate containing only Milli-Q water vehicle were performed to assess background and baseline signal. GPX1 activity was calculated as reported by Stolwijk et al. 2020 and results were analyzed in GraphPad Prism 9.

SU-DHL-5 = experiment: Cytotoxicity in DLBCL cells, SU-DHL-5; format: cell-based, human; settings: for IC50: SU-DHL-5
SU-DHL-2 = experiment: Cytotoxicity in DLBCL cells, SU-DHL-2; format: cell-based, human; settings: for IC50: SU-DHL-2
[2] = Fer-1 1.0 μM, read-out: IC50 (μM) with Fer-1

COc1cccc2[nH]c(C(=O)n3ccnc3)cc12 [LOC1886, reference compound]
GPX4 protein degradation, result in words (GPX4; HT-1080 cells): inhibits and degrades GPX4 | binding site in co-crystal structure (GPX4^U46C): bound to allosteric sites C66 and C10 of GPX4^U46C | half-life (in vitro): < 2 min

COc1ccc2cc(C(=O)NC(C)(C)COC(=O)CCl)[nH]c2c1 [QW-152]
Solubility ([1]; aqueous solubility, Table 9): 88 µM (≈ 29.8 µg/mL)

CC(C)(COC(=O)CCl)NC(=O)c1cc2ccc(Br)cc2[nH]1 [QW-156]
GPX1 inhibition (GPX1; 200 μM): approximately 30% | Solubility ([1]; aqueous solubility, Table 9): 23 µM (≈ 8.92 µg/mL)

Cn1nc(C(=O)NC(C)(C)COC(=O)CCl)c2ccc(Br)cc21 [QW-314]
GPX1 activity assay effect (GPX1): no inhibitory effect | selectivity for GPX4 over GPX1, result in words (GPX1): high selectivity for GPX4 over GPX1 | GPX4 protein degradation, result in words (GPX4): induces GPX4 protein degradation in HT-1080 cells | binding site in co-crystal structure (GPX4^U46C): covalently binds to the mutant cysteine in the U46 residue | half-life (in vitro): 40.7 min | solubility at 1 h ([1]; phosphate buffered saline, pH 7.4, aqueous buffer, kinetic from dmso stock): 61 µM (≈ 24.6 µg/mL)

COc1ccc(-c2ccc3c(C(=O)NC(C)(C)COC(=O)CCl)nn(C)c3c2)cc1Cl [QW-446]
aqueous solubility [1]: up to 1000 μM | Solubility ([1]; 1% DMSO, Phosphate Buffered Saline pH 7.4, 1 hour, ambient, UV/Vis absorbance): 22 µM (≈ 10.2 µg/mL) | Solubility ([1]; aqueous solubility, Table 9): >1000 µM | Plasma Stability t1/2 (min) human: 7.5 min

CC(C)(COC(=O)CCl)NC(=O)c1nn(Cc2cc(Cl)cc(Cl)c2)c2cc(-c3ccc(N4CCOCC4)c(Cl)c3)ccc12 [QW-852]
Selectivity^a (fold) (SU-DHL-5): >1000 fold | IC50 (SU-DHL-5; [2]): 1.58 µM | Selectivity^a (fold) (SU-DHL-2): >1000 fold | IC50 (SU-DHL-2; 24 h, read-out: IC50): 0.002 µM | IC50 (SU-DHL-2; [2]): 4.95 µM

COC(=O)c1ccc([C@@H]2c3[nH]c4ccccc4c3C[C@@H](C(=O)OC)N2C(=O)CCl)cc1 [RSL3, reference compound]
Selectivity^a (fold) (SU-DHL-5): 5 fold | IC50 (SU-DHL-5; 24 h, read-out: IC50): 0.4 µM | IC50 (SU-DHL-5; [2]): 2.15 µM | Solubility ([1]; aqueous solubility, Table 9): 26 µM (≈ 11.5 µg/mL) | Selectivity^a (fold) (SU-DHL-2): 8 fold | IC50 (SU-DHL-2; 24 h, read-out: IC50): 0.18 µM | IC50 (SU-DHL-2; [2]): 1.5 µM | Plasma Stability t1/2 (min) human: >1000 min
